Data published in patent publication US10689354B2, “Aminoazole derivative” (Teijin Pharma Limited, priority 2015, dated 2020).

Columns and labels:
[1] = target: T1, androgen receptor (AR-LBD) (Rattus norvegicus, UniProt P15207); test: Evaluation of androgen receptor affinity (PolarScreen Androgen Receptor Competitor Assay Kit, Red; fluorescence polarization); conditions: 22° C. for 5 hours, relative to binding rate of 1 μM DHT, read-out: AR affinity (pEC50) (converted)
T1 construct: 5 μL of 2×AR-LBD/Fluoromone AL Red Complex contained in the kit; purchased Invitrogen
T1 sequence (P15207 651-882 limits assumed): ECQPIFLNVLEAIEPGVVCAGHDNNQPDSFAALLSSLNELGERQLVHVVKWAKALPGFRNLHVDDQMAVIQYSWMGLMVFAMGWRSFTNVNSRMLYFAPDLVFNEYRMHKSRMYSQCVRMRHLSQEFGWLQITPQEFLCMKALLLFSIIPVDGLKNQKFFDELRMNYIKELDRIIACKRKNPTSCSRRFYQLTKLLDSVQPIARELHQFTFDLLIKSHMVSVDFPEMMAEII
Summary of the method: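 Test compound and the 2× AR-LBD/Fluoromone AL Red complex were combined in duplicate wells. After reacting 5 h at 22° C, polarization was measured. pEC50 was derived by 4-parameter fitting, normalizing to binding obtained with 1 μM dihydrotestosterone.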

human androgen receptor = target: T2, human androgen receptor (Homo sapiens, UniProt P10275); test: Reporter assay of an androgen receptor responsive sequence (luciferase, transiently transfected HEK293 cells); assay type: cell-based; conditions: 24 hours incubation, relative to activity of 100 nM DHT, read-out: AR transcriptive activity (pEC50) (converted)
T2 construct: expressed in transfected cells; host or cells: HEK293
T2 sequence (P10275 1-920): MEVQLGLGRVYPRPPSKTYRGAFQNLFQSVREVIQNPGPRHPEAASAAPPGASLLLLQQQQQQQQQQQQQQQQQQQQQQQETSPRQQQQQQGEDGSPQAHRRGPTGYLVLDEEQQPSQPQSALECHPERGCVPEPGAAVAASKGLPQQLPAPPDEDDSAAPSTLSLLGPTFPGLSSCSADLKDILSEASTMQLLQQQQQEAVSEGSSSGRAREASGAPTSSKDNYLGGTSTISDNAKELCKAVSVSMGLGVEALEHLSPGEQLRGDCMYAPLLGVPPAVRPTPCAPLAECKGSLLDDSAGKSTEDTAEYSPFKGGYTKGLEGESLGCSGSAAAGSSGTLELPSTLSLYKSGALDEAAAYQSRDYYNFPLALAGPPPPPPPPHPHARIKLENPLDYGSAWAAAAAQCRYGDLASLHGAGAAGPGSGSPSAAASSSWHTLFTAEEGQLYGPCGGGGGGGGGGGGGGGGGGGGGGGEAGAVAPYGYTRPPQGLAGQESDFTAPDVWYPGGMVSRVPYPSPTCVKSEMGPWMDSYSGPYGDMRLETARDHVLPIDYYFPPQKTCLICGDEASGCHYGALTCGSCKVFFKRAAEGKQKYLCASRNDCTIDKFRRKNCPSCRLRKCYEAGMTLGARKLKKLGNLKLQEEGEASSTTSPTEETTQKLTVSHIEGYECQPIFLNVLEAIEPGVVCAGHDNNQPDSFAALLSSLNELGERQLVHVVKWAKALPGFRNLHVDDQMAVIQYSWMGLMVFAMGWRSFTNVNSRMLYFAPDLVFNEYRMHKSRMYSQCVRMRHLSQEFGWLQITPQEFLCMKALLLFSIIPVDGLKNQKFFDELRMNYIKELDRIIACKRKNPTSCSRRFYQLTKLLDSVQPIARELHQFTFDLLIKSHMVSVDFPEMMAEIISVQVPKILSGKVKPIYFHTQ
Summary of the method: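 Agonism scored as pEC50, fitted by 4-parameter curve against the response to 100 nM DHT, from dual-luciferase readout after 24 h compound treatment. Cells were HEK293 co-transfected (3 h) with human AR expression vector, androgen-responsive firefly reporter and Renilla control, in charcoal-stripped serum.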

**Q.** What does the source list for Cc1sc(N(Cc2ccc(F)cc2OC(F)F)c2ccc(C#N)cc2)nc1C(=O)NS(C)(=O)=O [Example 176, 2-[4-cyano-N-[[2-(difluoromethoxy)-4-fluoro-phenyl]methyl]anilino]-5-methyl-N-methylsulfonyl-thiazole-4-carboxamide]?
**A.** EC50 [1]: 0.0631 µM; EC50 (human androgen receptor): 0.501 µM

**Q.** What does the source list for Cc1oc(N(Cc2ccc(Cl)c(Cl)c2)c2ccc(C#N)cc2)nc1C(=O)NS(C)(=O)=O [Compound 608, 2-[4-cyano-N-[(3,4-dichlorophenyl)methyl]anilino]-5-methyl-N-methylsulfonyl-oxazole-4-carboxamide]?
**A.** EC50 [1]: 0.0316 µM; EC50 (human androgen receptor): 0.316 µM

**Q.** For Cc1sc(N(Cc2ccccc2)c2ccc(S(F)(F)(F)(F)F)cc2)nc1C(=O)NS(C)(=O)=O [Example 241, 2-[N-benzyl-4-(pentafluorosulfanyl)anilino]-5-methyl-N-methylsulfonyl-thiazole-4-carboxamide], which EC50 [1] is on record?
**A.** 0.316 µM

**Q.** What about the EC50 (human androgen receptor) of the same molecule?
**A.** 1 µM

**Q.** How did the EC50 [1] turn out when Cc1sc(N(CCc2ccc(C#N)cc2)Cc2ccccc2)nc1C(=O)NS(C)(=O)=O [Example 301, 2-[benzyl-[2-(4-cyanophenyl)ethyl]amino]-5-methyl-N-methylsulfonyl-thiazole-4-carboxamide] was run?
**A.** 0.0501 µM

**Q.** And the EC50 (human androgen receptor)?
**A.** 0.158 µM

**Q.** For Cc1sc(N(Cc2ccccc2)c2ccc(C#N)cc2)nc1C(=O)NS(=O)(=O)Cc1ccncc1 [Compound 395, 2-(N-benzyl-4-cyano-anilino)-5-methyl-N-(4-pyridylmethylsulfonyl)thiazole-4-carboxamide], which EC50 [1] is on record?
**A.** 0.1 µM

**Q.** And the EC50 (human androgen receptor)?
**A.** 0.158 µM

**Q.** With Cc1sc(N(CCc2ccc(Cl)cc2Cl)Cc2ccccc2)nc1C(=O)NS(C)(=O)=O [Example 315, 2-[benzyl-[2-(2,4-dichlorophenyl)ethyl]amino]-5-methyl-N-methylsulfonyl-thiazole-4-carboxamide] as the molecule, how does the EC50 [1] read?
**A.** 0.0794 µM

**Q.** And the EC50 (human androgen receptor)?
**A.** 0.158 µM

**Q.** What does the source list for COc1c(F)ccc(CN(c2ccc(C#N)cc2)c2nc(C(=O)NS(C)(=O)=O)c(C)s2)c1F [Compound 111, 2-[4-cyano-N-[(2,4-difluoro-3-methoxy-phenyl)methyl]anilino]-5-methyl-N-methylsulfonyl-thiazole-4-carboxamide]?
**A.** EC50 [1]: 0.0501 µM; EC50 (human androgen receptor): 0.0631 µM

**Q.** Which results are given for CCS(=O)(=O)NC(=O)c1nc(N(CCc2ccc(Cl)cc2)Cc2ccc(OC(F)(F)F)cc2)sc1C [Compound 701, 2-[2-(4-chlorophenyl)ethyl-[[4-(trifluoromethoxy)phenyl]methyl]amino]-N-ethylsulfonyl-5-methyl-thiazole-4-carboxamide]?
**A.** EC50 [1]: 0.0631 µM; EC50 (human androgen receptor): 1.26 µM

**Q.** Cc1sc(N(CCc2ccc(F)cc2)c2ccc(C#N)cc2)nc1C(=O)NS(C)(=O)=O [Compound 81, 2-[4-cyano-N-[2-(4-fluorophenyl)ethyl]anilino]-5-methyl-N-methylsulfonyl-thiazole-4-carboxamide] was tested. Which EC50 [1] did it give?
**A.** 0.158 µM

**Q.** And the EC50 (human androgen receptor)?
**A.** 1.58 µM

**Q.** For COCCCS(=O)(=O)NC(=O)c1nc(N(Cc2cnc(C(F)(F)F)c(OC)c2)c2ccc(C#N)cc2)sc1C [Compound 532, 2-[4-cyano-N-[[5-methoxy-6-(trifluoromethyl)-3-pyridyl]methyl]anilino]-N-(3-methoxypropylsulfonyl)-5-methyl-thiazole-4-carboxamide], which EC50 [1] is on record?
**A.** 0.2 µM

**Q.** And the EC50 (human androgen receptor)?
**A.** 1.58 µM

**Q.** What does the source list for Cc1sc(N(Cc2ccc(Cl)c(F)c2)c2ccc(C#N)cc2)nc1C(=O)NS(C)(=O)=O [Compound 116, 2-[N-[(4-chloro-3-fluoro-phenyl)methyl]-4-cyano-anilino]-5-methyl-N-methylsulfonyl-thiazole-4-carboxamide]?
**A.** EC50 [1]: 0.0316 µM; EC50 (human androgen receptor): 0.0251 µM

**Q.** How did the EC50 [1] turn out when Cc1sc(N(CCC2CCCCC2)Cc2ccccc2)nc1C(=O)NS(C)(=O)=O [Example 298, 2-[benzyl(2-cyclohexylethyl)amino]-5-methyl-N-methylsulfonyl-thiazole-4-carboxamide] was run?
**A.** 0.1 µM

**Q.** What about the EC50 (human androgen receptor) of the same molecule?
**A.** > 10 µM

**Q.** How did the EC50 [1] turn out when CS(=O)(=O)NC(=O)c1nc(N(Cc2ccc(C(F)(F)F)nc2)c2ccc(C#N)cc2)sc1C1CC1 [Compound 659, 2-[4-cyano-N-[[6-(trifluoromethyl)-3-pyridyl]methyl]anilino]-5-cyclopropyl-N-methylsulfonyl-thiazole-4-carboxamide] was run?
**A.** 0.126 µM

**Q.** And the EC50 (human androgen receptor)?
**A.** > 10 µM

**Q.** Which results are given for COc1ccc(CN(c2ccc(C#N)cc2)c2nc(C(=O)NS(C)(=O)=O)c(Cl)s2)cc1 [Example 271, 5-chloro-2-[4-cyano-N-[(4-methoxyphenyl)methyl]anilino]-N-methylsulfonyl-thiazole-4-carboxamide]?
**A.** EC50 [1]: 0.0794 µM; EC50 (human androgen receptor): 0.0501 µM

**Q.** How did the EC50 [1] turn out when Cc1sc(N(Cc2ccc(F)cn2)c2ccc(C#N)cc2)nc1C(=O)NS(C)(=O)=O [Compound 517, 2-[4-cyano-N-[(5-fluoro-2-pyridyl)methyl]anilino]-5-methyl-N-methylsulfonyl-thiazole-4-carboxamide] was run?
**A.** 0.316 µM

**Q.** What about the EC50 (human androgen receptor) of the same molecule?
**A.** 0.631 µM

**Q.** Which results are given for Cc1sc(N(Cc2ccc(Cl)cn2)c2ccc(C#N)cc2)nc1C(=O)NS(C)(=O)=O [Compound 152, 2-[N-[(5-chloro-2-pyridyl)methyl]-4-cyano-anilino]-5-methyl-N-methylsulfonyl-thiazole-4-carboxamide]?
**A.** EC50 [1]: 0.2 µM; EC50 (human androgen receptor): 0.1 µM

**Q.** Which EC50 [1] does the source give for COc1ccc(CN(c2ccc(C#N)cc2)c2nc(C(=O)NS(C)(=O)=O)c(C)s2)nn1 [Compound 516, 2-[4-cyano-N-[(6-methoxypyridazin-3-yl)methyl]anilino]-5-methyl-N-methylsulfonyl-thiazole-4-carboxamide] here?
**A.** > 2 µM

**Q.** What about the EC50 (human androgen receptor) of the same molecule?
**A.** 6.31 µM

**Q.** What does the source list for Cc1sc(N(Cc2nc(C3CC3)no2)c2ccc(C#N)cc2)nc1C(=O)NS(C)(=O)=O [Example 196, 2-[4-cyano-N-[(3-cyclopropyl-1,2,4-oxadiazol-5-yl)methyl]anilino]-5-methyl-N-methylsulfonyl-thiazole-4-carboxamide]?
**A.** EC50 [1]: 0.631 µM; EC50 (human androgen receptor): 1.58 µM

**Q.** Which EC50 [1] does the source give for COCCCS(=O)(=O)NC(=O)c1nc(N(CCc2ccc(C#N)cc2)Cc2ccc(OC(F)F)cc2)oc1C [Compound 557, 2-[2-(4-cyanophenyl)ethyl-[[4-(difluoromethoxy)phenyl]methyl]amino]-N-(3-methoxypropylsulfonyl)-5-methyl-oxazole-4-carboxamide] here?
**A.** 0.0398 µM

**Q.** What about the EC50 (human androgen receptor) of the same molecule?
**A.** 0.631 µM

**Q.** With Cc1oc(N(CCc2ccc(C#N)cc2)Cc2ccc(C(F)(F)F)nc2)nc1C(=O)NS(C)(=O)=O [Compound 555, 2-[2-(4-cyanophenyl)ethyl-[[6-(trifluoromethyl)-3-pyridyl]methyl]amino]-5-methyl-N-methylsulfonyl-oxazole-4-carboxamide] as the molecule, how does the EC50 [1] read?
**A.** 0.316 µM

**Q.** What about the EC50 (human androgen receptor) of the same molecule?
**A.** 5.01 µM

**Q.** Which EC50 [1] does the source give for Cc1sc(N(Cc2ccc(F)cc2)c2ccc(C#N)cc2)nc1C(=O)NS(=O)(=O)Cc1cccnc1 [Compound 122, 2-[4-cyano-N-[(4-fluorophenyl)methyl]anilino]-5-methyl-N-(3-pyridylmethylsulfonyl)thiazole-4-carboxamide] here?
**A.** 0.0251 µM

**Q.** And the EC50 (human androgen receptor)?
**A.** 0.02 µM

**Q.** What does the source list for Cc1oc(N(CCc2ccc(C#N)cc2)Cc2ccc(Cl)cc2)nc1C(=O)NS(C)(=O)=O [Compound 548, 2-[(4-chlorophenyl)methyl-[2-(4-cyanophenyl)ethyl]amino]-5-methyl-N-methylsulfonyl-oxazole-4-carboxamide]?
**A.** EC50 [1]: 0.0251 µM; EC50 (human androgen receptor): 0.126 µM

**Q.** With Cc1sc(N(Cc2ccccc2SC(F)(F)F)c2ccc(C#N)cc2)nc1C(=O)NS(C)(=O)=O [Compound 56, 2-[4-cyano-N-[[2-(trifluoromethylsulfanyl)phenyl]methyl]anilino]-5-methyl-N-methylsulfonyl-thiazole-4-carboxamide] as the molecule, how does the EC50 [1] read?
**A.** 0.0631 µM

**Q.** What about the EC50 (human androgen receptor) of the same molecule?
**A.** 6.31 µM

**Q.** With CS(=O)(=O)NC(=O)c1nc(N(Cc2ccccc2)c2ccc(C#N)cc2)sc1Br [Compound 603, 2-(N-benzyl-4-cyano-anilino)-5-bromo-N-methylsulfonyl-thiazole-4-carboxamide] as the molecule, how does the EC50 [1] read?
**A.** 0.0501 µM

**Q.** What about the EC50 (human androgen receptor) of the same molecule?
**A.** 0.0316 µM
